Laboratory results reported in ChEMBL document CHEMBL1150717, “5'-Hydroxyisoavrainvilleol, a new diphenylmethane derivative from the tropical green alga Avrainvillea nigricans” (J Nat Prod, 1987).
Values after ≈ are worked out from the molar mass of the structure shown. Active and inactive are the calls of the source. The rule behind the calls is not given here.

Legend:
Candida albicans [1] = assay: Antimicrobial activity against Candida albicans at 100 ug/disk by paper disk antibiotic sensitivity assay; assay type: functional, organism-based
Bacillus subtilis [2] = assay: Antimicrobial activity against Bacillus subtilis at 50 ug/disk by paper disk antibiotic sensitivity assay; assay type: functional; details: read-out: IZ
Bacillus subtilis [3] = assay: Antimicrobial activity against Bacillus subtilis at 100 ug/disk by paper disk antibiotic sensitivity assay; assay type: functional; details: read-out: IZ
Pseudomonas aeruginosa [4] = assay: Antimicrobial activity against Pseudomonas aeruginosa at 100 ug/disk by paper disk antibiotic sensitivity assay; assay type: functional
Carassius auratus = assay: Toxicity in goldfish at 10 ug/ml; assay type: organism-based; details: in vivo
Bacillus subtilis [5] = assay: Antimicrobial activity against Bacillus subtilis at 25 ug/disk by paper disk antibiotic sensitivity assay; assay type: functional; details: read-out: IZ
Staphylococcus aureus [6] = assay: Antimicrobial activity against Staphylococcus aureus at 100 ug/disk by paper disk antibiotic sensitivity assay; assay type: functional; details: read-out: IZ
Serratia marcescens [7] = assay: Antimicrobial activity against Serratia marcescens at 100 ug/disk by paper disk antibiotic sensitivity assay; assay type: functional
Escherichia coli [8] = assay: Antimicrobial activity against Escherichia coli at 100 ug/disk by paper disk antibiotic sensitivity assay; assay type: functional, organism-based
Serratia marcescens [9] = assay: Antimicrobial activity against Serratia marcescens at 200 ug/disk by paper disk antibiotic sensitivity assay; assay type: functional; details: read-out: IZ
KB = assay: Cytotoxicity against human KB cells; assay type: functional; details: read-out: ID50 (the source's name)
Staphylococcus aureus [10] = assay: Antimicrobial activity against Staphylococcus aureus at 25 ug/disk by paper disk antibiotic sensitivity assay; assay type: functional; details: read-out: IZ
Staphylococcus aureus [11] = assay: Antimicrobial activity against Staphylococcus aureus at 50 ug/disk by paper disk antibiotic sensitivity assay; assay type: functional; details: read-out: IZ
Escherichia coli [12] = assay: Antimicrobial activity against Escherichia coli at 200 ug/disk by paper disk antibiotic sensitivity assay; assay type: functional; details: read-out: IZ
Pseudomonas aeruginosa [13] = assay: Antimicrobial activity against Pseudomonas aeruginosa at 200 ug/disk by paper disk antibiotic sensitivity assay; assay type: functional; details: read-out: IZ
Candida albicans [14] = assay: Antimicrobial activity against Candida albicans at 200 ug/disk by paper disk antibiotic sensitivity assay; assay type: functional; details: read-out: IZ

| SMILES | inhibition zone (IZ) (Candida albicans [1]) | zone of inhibition at 50 µg/disc (Bacillus subtilis [2]) [mm] | zone of inhibition at 100 µg/disc (Bacillus subtilis [3]) [mm] | inhibition zone (IZ) (Pseudomonas aeruginosa [4]) | Activity (Carassius auratus) | zone of inhibition at 25 µg/disc (Bacillus subtilis [5]) [mm] | zone of inhibition at 100 µg/disc (Staphylococcus aureus [6]) [mm] | inhibition zone (IZ) (Serratia marcescens [7]) | inhibition zone (IZ) (Escherichia coli [8]) | zone of inhibition at 200 µg/disc (Serratia marcescens [9]) [mm] | IC50 (KB) [µg/mL] | zone of inhibition at 25 µg/disc (Staphylococcus aureus [10]) [mm] | zone of inhibition at 50 µg/disc (Staphylococcus aureus [11]) [mm] | zone of inhibition at 200 µg/disc (Escherichia coli [12]) [mm] | zone of inhibition at 100 µg/disc (Pseudomonas aeruginosa [4]; read-out: IZ) [mm] | zone of inhibition at 200 µg/disc (Pseudomonas aeruginosa [13]) [mm] | zone of inhibition at 200 µg/disc (Candida albicans [14]) [mm] | zone of inhibition at 100 µg/disc (Serratia marcescens [7]; read-out: IZ) [mm] |
| --- | --- | --- | --- | --- | --- | --- | --- | --- | --- | --- | --- | --- | --- | --- | --- | --- | --- | --- |
| OCc1cc(O)c(O)c(Br)c1Cc1cc(O)c(O)c(Br)c1 | inactive | 10 | 11 | inactive | Non-toxic | 9 | 10 | inactive | inactive | – | – | – | – | – | – | – | – | – |
| OCc1cc(Br)c(O)c(O)c1Cc1ccc(O)c(Br)c1 [AVRAINVILLEOL] | inactive | 12 | 14 | inactive | Non-toxic | 9 | 16 | – | inactive | 9 | 10 (≈ 24.7 µM) | 10 | 12 | – | – | – | – | – |
| OCc1cc(O)c(O)c(Br)c1 | – | 10 | 12 | – | Non-toxic | 8 | 13 | – | – | 13 | 8.9 (≈ 40.6 µM) | 8 | 11 | 10 | 8 | 9 | 8 | 9 |
